From ChEMBL document CHEMBL1201862, “PubChem BioAssay data set” (2004) come the findings set out here.

Activity calls are given as the source filed them. Bounds are passed on as bounds.

Series [1] has as its target T1, Rac GTPase-activating protein 1 (Homo sapiens, UniProt Q9H0H5).
T1 sequence (Q9H0H5 whole entry): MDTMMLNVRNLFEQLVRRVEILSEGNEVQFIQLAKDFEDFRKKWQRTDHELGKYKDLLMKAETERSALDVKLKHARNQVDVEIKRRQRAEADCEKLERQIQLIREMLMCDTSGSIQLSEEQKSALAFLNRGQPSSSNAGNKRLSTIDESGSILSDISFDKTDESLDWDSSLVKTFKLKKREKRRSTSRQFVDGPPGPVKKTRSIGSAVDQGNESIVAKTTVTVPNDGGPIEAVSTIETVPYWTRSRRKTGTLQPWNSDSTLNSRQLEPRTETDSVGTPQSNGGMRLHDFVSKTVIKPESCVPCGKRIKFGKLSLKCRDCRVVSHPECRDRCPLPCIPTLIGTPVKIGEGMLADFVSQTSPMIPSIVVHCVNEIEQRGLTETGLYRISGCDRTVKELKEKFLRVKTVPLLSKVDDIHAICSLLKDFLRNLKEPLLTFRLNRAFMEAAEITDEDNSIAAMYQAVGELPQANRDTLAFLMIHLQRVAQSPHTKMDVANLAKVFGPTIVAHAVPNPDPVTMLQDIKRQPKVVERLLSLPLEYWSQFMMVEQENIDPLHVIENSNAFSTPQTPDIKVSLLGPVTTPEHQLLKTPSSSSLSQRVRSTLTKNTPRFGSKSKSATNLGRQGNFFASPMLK
In words: blockers of MgcRacGAP-driven Rac1 GTP hydrolysis – biochemical, ADP Hunter fluorescence, primary and confirmatory, confirmation (AID 624330). It is filed as functional.

The next series concerns the target Cytochrome P450 2C19 (Homo sapiens, UniProt P33261). The series can be described thus: Cytochrome panel assay with activity outcomes. Panel member name: p450-cyp2c19 Compounds with AC50 equal or less than 10 uM are considered active. The format is functional.
Series [2] in a line: NIH3T3 cell viability loss – ATP luminescence, mouse fibroblasts, counter-screen, dose response (AID 2010).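 Also: cells exposed to compound for about 90 hours before reading.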 It is filed as functional, cell-based.
Series [3] can be described thus: Trypanosoma cruzi growth suppression in host cells – NIH3T3 host cells, beta-gal luminescence, confirmation (AID 2044).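 Also: intracellular parasites grown in NIH/3T3 mouse fibroblasts as host cells; luminescent beta-galactosidase reporter signal from transgenic T. cruzi replicating inside host cells; inhibitors lower the luminescence signal.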 The format is functional, cell-based.

Cytochrome P450 2C19, sequence (P33261 whole entry): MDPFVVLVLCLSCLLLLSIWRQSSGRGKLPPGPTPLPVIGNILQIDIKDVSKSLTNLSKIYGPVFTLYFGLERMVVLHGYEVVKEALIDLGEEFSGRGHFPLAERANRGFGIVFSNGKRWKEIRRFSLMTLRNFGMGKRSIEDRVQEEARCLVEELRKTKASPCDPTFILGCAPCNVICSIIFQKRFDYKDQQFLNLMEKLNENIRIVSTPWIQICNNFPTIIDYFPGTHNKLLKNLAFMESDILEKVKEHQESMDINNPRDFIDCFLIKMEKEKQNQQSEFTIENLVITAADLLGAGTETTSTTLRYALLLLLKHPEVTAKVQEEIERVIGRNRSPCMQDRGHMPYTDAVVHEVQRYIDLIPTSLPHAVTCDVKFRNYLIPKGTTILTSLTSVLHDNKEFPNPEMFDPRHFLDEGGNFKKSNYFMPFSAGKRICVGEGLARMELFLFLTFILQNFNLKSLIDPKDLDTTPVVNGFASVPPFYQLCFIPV

Take `Brc1cccc(CNCCc2ccc3c(c2)OCO3)c1`: the IC50 in series [1] was 179 µM (active). Still for that read-out and setting: the value for `N#C/C(=C\c1cccnc1)C(=O)Nc1cccc2ccccc12` was 157 µM (active); that for `CCN1CCN(C(C)C(=O)NC2CCCCC2)CC1` (centres undefined) was 75.6 µM (active); that for `CCN1CCN(CCCCOc2ccccc2F)CC1` was 70.1 µM (active). Take `CC(C)NCC#CCOc1ccc(Cl)cc1`: the half-inhibitory concentration (IC50) in series [1] is 162 µM (active). Consider `Cc1cc(/C=C(\C#N)C(=O)N2CCCCC2)cc(C)c1O`, for which, in series [1], the IC50 was 59.4 µM (active). With `O=C(c1cccc(F)c1)N1CCC[C@@]2(CCN(c3ccncc3)C2)C1`, the concentration at half-maximal activity (AC50) at Cytochrome P450 2C19 (read-out: AC50) was 2.51 µM (inconclusive). On the same count and under the same terms, then `Cc1ccsc1-c1nc(-c2ccccc2)c(-c2ccccc2)[nH]1`, with 10 µM (inconclusive). For `COc1ccc(N2CCN(CC(=O)Nc3cccc(S(=O)(=O)N4CCOCC4)c3)CC2)cc1`, the IC50 in series [1] was 77.5 µM (active). Turning to `O=C(CC(c1ccccc1)c1ccccc1)Nc1ccc(O)cc1`, the IC50 in series [1] is 47.2 µM (active). With `CCOc1cc(/C=C2/NC(=O)N(Cc3ccccc3F)C2=O)ccc1O`, the IC50 in series [1] is 44.5 µM (active). The same measure, in the same setting: then `COc1cc(/C=C/C(=O)N[C@@H](Cc2c[nH]c3ccccc23)C(=O)O)ccc1O`, with 80 µM (active); and `Cc1cc(C)c(C)c(OCCNCc2ccccc2)c1`, with 105 µM (active); and `COc1ccc(NCc2cccnc2)cc1`, with 53.1 µM (active). On to `CCC(CC)N1CCN(C(=O)c2cccc(Cl)c2)CC1`, for which the IC50 in series [1] is 193 µM (active). With `CCOc1ccc(OCCOCCN2CCCC2)cc1`, in series [1], the IC50 is 109 µM (active). For `COc1ccc(OC)c(CNC(=O)CCNC(=O)Cn2ccc3ccccc3c2=O)c1`, on Cytochrome P450 2C19 (read-out: AC50), the concentration at half-maximal activity (AC50) is 31.6 µM (inconclusive).

Regarding `Cc1nc2cnc(Oc3cccc(Cl)c3)nc2n(C2CC2)c1=O`, at Cytochrome P450 2C19 (read-out: AC50), the AC50 was 31.6 µM (inconclusive). Consider `C=CCc1cc(Cl)ccc1OCCNCCN1CCOCC1`, for which the IC50 in series [1] was 90.8 µM (active). Also, the EC50 was > 60 µM (not active) in series [2] and 136 nM (active) in series [3].

Regarding `CC1(C)C2([N+](=O)[O-])CN3CC1([N+](=O)[O-])CN(C2)C3c1ccccc1` (centres undefined), the AC50 at Cytochrome P450 2C19 (read-out: AC50) was 0.355 µM (inconclusive).

As to `C[N+](C)(C)c1ncnc2c1ncn2[C@@H]1CCCCO1`, the half-maximal activity concentration (AC50) entry at Cytochrome P450 2C19 is given as “inconclusive”. As to `CSc1nc(C)c2c(n1)N(c1ccc(O)cc1)CC2`, in series [1], the IC50 is 16.8 µM (active). Take `CCN(CC)c1ccc(NC(=O)CN2C(=O)NC3(CCc4ccccc43)C2=O)cc1` (centres undefined): in series [1], the IC50 is 89.8 µM (active).

Take `Cc1cc(C(=O)Nc2c(C)n(C)n(-c3ccccc3)c2=O)c2ccccc2n1`: on Cytochrome P450 2C19, the AC50 entry is on record as “inconclusive”. As for `COc1cc(/C=C/C(=O)OCC(=O)NCCCc2ccccc2)ccc1O`, in series [1], the IC50 is 41.5 µM (active). The same measure, in the same setting: then `O=C(Cc1coc2cc(O)ccc12)NNC(=O)c1ccc(Br)s1`, with 31.8 µM (active). In the case of `O=C(CCc1ccc(O)c(O)c1)N/N=C/c1ccc2c(c1)OCO2`, in series [1], the IC50 is 91.7 µM (active). The same measure, in the same setting: then `COc1ccccc1N1CCN(/N=C/c2cc(OC)c(O)c(OC)c2)CC1`, with 252 µM (active); and `CCc1cc(/C(Cc2cscn2)=N\O)c(O)cc1O`, with 52 µM (active); and `COc1cc(/C=N/NC(=O)CCN2CCN(C(c3ccccc3)c3ccccc3)CC2)ccc1O`, with 50.9 µM (active).

In the case of `CCCc1cc(=O)[nH]c(=S)[nH]1` [PROPYLTHIOURACIL], the AC50 result at Cytochrome P450 2C19 is given as “inconclusive”.

As to `CSC(=N)NCCC[C@@H](N)C(=O)O` [S-METHYL-D-THIOCITRULLINE], the AC50 entry at Cytochrome P450 2C19 is reported as “inconclusive”.
